Reference: patent publication US6552027B2, “Quinazolines for treating brain tumor” (Parker Hughes Institute, priority 1998, dated 2003)
Where “and” joins values, the source holds several entries; their conditions need not be identical. Identical values can stand only once. Like-named read-outs stand apart in the source and are kept apart here.

Tests used:
NALM-6 leukemia cells = assay: MTT cytotoxicity assay, EGF-R negative leukemia cells (negative control line); assay type: cell-based
Method: Triplicate wells were used for each treatment.
Human glioblastoma cell line U373 was obtained from American.
The percent survival was calculated using the formula: [formula]

[1] = test system: U373 human glioblastoma cells; assay: SCID mouse xenograft model of human glioblastoma; details: for in vivo anti-tumor activity / tumor-free survival (in words): daily i.p. doses for 10 days starting the day after inoculation
Method: The right hind legs of the CB. 17 SCID mice were inoculated subcutaneously (s.c.) with 0.5×10^6 U373 human glioblastoma cells in 0.2 mL PBS. […] Daily treatments with PBS, unconjugated EGF (1 mg/kg/dose), and unconjugated WHI-P154 (1 mg/kg/dose) were used as controls. Mice were monitored daily for health status and tumor growth, and were sacrificed if they became moribund developed tumors which impeded their ability to attain food or water, at the end of the 3-month observation period. Tumors were measured using Vernier calipers twice weekly, and the tumor volumes were calculated according to the following formula (Friedman, S. H., mDolan, M. E., Pegg, A. E., Marcelli, S., Keir, S., Catino, J. J., Binger, D. D., Schold, S. C., Jr., 1995, Cancer Res., 55:2853-2857): [formula]
For histopathologic studies, tissues were fixed in 10% neutral buffered formalin, dehydrated, and embedded in paraffin by routine methods. Glass slides with affixed 6 micron tissue sections were prepared and stained with hematoxylin/eosin. Primary endpoints of interest were tumor growth and tumor-free survival outcome. Estimation of life table outcome and comparisons of outcome between groups were done, as previously reported (Waurzyniak, et al., 1997, Clinical Cancer Research 3:881-890; Anderson, et al., 1995, Cancer Res. 55:1321-1327; Uckun, et al., 1997, J. Clin. Oncol. 15:2214-2221).

U373 glioma cells = assay: Morphology by anti-α-tubulin / TOTO-3 immunofluorescence; assay type: cell-based, human; details: 25 μg/ml, 24 hours
Method: Cells were fixed in paraformaldehyde, immunostained with monoclonal antibody to EGF-R (green fluorescence) and counterstained with TOTO-3 (blue fluorescence) The immunostained cells were analyzed with a laser scanning confocal microscope. Blue fluorescence represents nuclei.
Immunofluorescence was used to (i) examine the surface expression of EGF-receptor (EGF-R) on brain tumor cells, (ii) evaluate the uptake of EGF-P154 by brain tumor cells and (iii) examine the morphologic features of EGF-P154 treated brain tumor cells.
At the end of the incubation, cells were washed twice with PBS and fixed in 2% paraformaldehyde. The cells were permeabilized and non-specific binding sites were blocked with 2.5% BSA in PBS containing 0.1% Triton X-100 for 30 minutes. […] After rinsing with PBS, cells were incubated for 1 hour with a mixture of a goat anti-mouse IgG antibody conjugated to FITC (Amersham Corp., Arlington Heights, Ill.) and donkey anti-rabbit IgG conjugated to Texas Red (Amersham Corp.) at a dilution of 1:40 in PBS. Similarly, tubulin expression was examined by immunofluorescence using a monoclonal antibody against α-tubulin (Sigma Chemical Co, St. Louis, Mo.) at a dilution of 1:1000 and an anti-mouse IgG conjugated to FITC. Cells were washed in PBS and counterstained with toto-3 (Molecular Probes Inc., Eugene, Oreg.) for 10 minutes at a dilution of 1:1000. […]

[2] = test system: U373 human glioblastoma cell line; assay: MTT cytotoxicity assay, U373 glioblastoma cells; details: U373
Method: (§1) The cytotoxicity assay of various compounds against human brain tumor cell lines was performed using the MTT (3-[4,5-dimethylthiazol-2-yl]-2,5-diphenyl tetrazolium bromide) assay (Boehringer Mannheim Corp., Indianapolis, Ind.). Briefly, exponentially growing brain tumor cells were seeded into a 96-well plate at a density of 2.5×10^4 cells/well and incubated for 36 hours at 37° C. prior to drug exposure. […] Triplicate wells were used for each treatment.
Human glioblastoma cell line U373 was obtained from American. Type Culture Collection (Rockville, Md.) and maintained as a continuous cell line in Dulbecco's modified Eagles's medium supplemented with 10% fetal bovine serum and antibiotics. The B-lineage acute lymphoblastic leukemia cell line Nalm-6 was used as a negative control.
(§2) The cells were incubated with the various compounds for 24-36 hours at 37° C. in a humidified 5% CO2 atmosphere. To each well, 10 μl of MTT (0.5 mg/ml final concentration) was added and the plates were incubated at 37° C. for 4 hours to allow MTT to form formazan crystals by reacting with metabolically active cells. The formazan crystals were solubilized overnight at 37° C. in a solution containing 10% SDS in 0.01 M HCl. The absorbence of each well was measured in a microplate reader (Labsystems) at 540 nm and a reference wavelength of 690 nm. To translate the OD540 values into the number of live cells in each well, the OD540 values were compared to those on standard OD540—versus—cell number curves generated for each cell line. The percent survival was calculated using the formula: [formula]
(§3) The IC50 values were calculated by non linear regression analysis.

glioblastoma cells = assay: In situ apoptosis assay (TdT-mediated dUTP nick-end labeling); assay type: cell-based, human; details: 36 hours after treatment; FIGS. 6D and 6E
Method: After a 36 hour incubation at 37° C. in a humidified 5% CO2 incubator, the supernatants were carefully aspirated and the cells were treated for 1-2 minutes with 0.1% trypsin. The detached cells were collected into a 15 ml centrifuge tube, washed with medium and pelleted by centrifugation at 1000 rpm for 5 minutes. Cells were resuspended in 50 μl of PBS, transferred to poly-L-lysine coated coverslips and allowed to attach for 15 minutes. The cells were washed once with PBS and incubated with equilibration buffer for 10 minutes at room temperature.
After removal of the equilibration buffer, cells were incubated for 1 hour at 37° C. with the reaction mixture containing terminal deoxynucleotidyl transferase (TdT) and […] for labeling of exposed 3′-hydroxyl ends of fragmented nuclear DNA. The cells were washed with PBS and incubated with anti-digoxigenin antibody conjugated to FITC for 1 hour at room temperature to detect the incorporated dUTP. After washing the cells with PBS, the coverslips were mounted onto slides with Vectashield containing propidium iodide (Vector Labs, Burlingame, Calif.) and viewed with a confocal laser scanning microscope. […] In control reactions, the TdT enzyme was omitted from the reaction mixture.

[3] = test system: U87 human glioblastoma cell line; assay: MTT cytotoxicity assay, U87 glioblastoma cells; assay type: cell-based
Method: as §1, §2, §3
Apoptosis was also evaluated using the nick-end-labeling assay, as described for Example 3.

U373 glioblastoma cells = assay: Uptake and internalization by immunofluorescence and confocal microscopy; assay type: cell-based, human; details: 5 μg/ml
Method: At the end of the incubation, cells were washed twice with PBS and fixed in 2% paraformaldehyde. The cells were permeabilized and non-specific binding sites were blocked with 2.5% BSA in PBS containing 0.1% Triton X-100 for 30 minutes. […] After rinsing with PBS, cells were incubated for 1 hour with a mixture of a goat anti-mouse IgG antibody conjugated to FITC (Amersham Corp., Arlington Heights, Ill.) and donkey anti-rabbit IgG conjugated to Texas Red (Amersham Corp.) at a dilution of 1:40 in PBS. Similarly, tubulin expression was examined by immunofluorescence using a monoclonal antibody against α-tubulin (Sigma Chemical Co, St. Louis, Mo.) at a dilution of 1:1000 and an anti-mouse IgG conjugated to FITC. Cells were washed in PBS and counterstained with toto-3 (Molecular Probes Inc., Eugene, Oreg.) for 10 minutes at a dilution of 1:1000. Cells were washed again with PBS and the coverslips were mounted with Vectashield (Vector Labs, Burlingame, Calif.) and viewed with a confocal microscope (Bio-Rad MRC 1024) mounted in a Nikon Labhophot upright microscope.

U373 cells = assay: EGF-stimulated cell adhesion to poly-L-lysine coated plates; assay type: cell-based, human; details: stimulation with 250 ng/ml EGF, baseline 33.2±5.2%, P<0.02
Method: To study the effects of quinazoline derivatives on EGF-stimulated cell adhesion, the trypsinized and recovered cells were incubated with varying concentrations ranging from 1 μM to 50 μM of quinazolines for 4 hours at 37° C., then stimulated with 250 ng/ml of EGF and examined for their ability to adhere to poly-L-lysine coated plates.
For the EGF stimulation experiments, the cells were plated in the presence of 250 ng/ml of EGF and allowed to adhere for 1 hour. The non-adherent cells were removed by gently washing the cells with PBS and then the adherent fraction was quantitated as described above for Example 6.

[4] = 500 μg/kg/day×10 days i.p., 5 mice
[5] = read-out: IC50 value derived from the composite cell survival curve

## EGF-P154: WHI-P154 attached to recombinant human EGF by photochemical conjugation with the crosslinking agent Sulfo-SANPAH
NALM-6 leukemia cells
  cytotoxicity against EGF-R negative leukemia cells (in words): selective cytotoxicity to EGF-R positive glioblastoma cell lines only
[1]; 500 μg/kg/day dose level, P=0.0003
  average size (mean±SE) of tumors at 40 days: 37.6±10.7 mm^3
[1]; 500 μg/kg/day dose level, P=0.002
  average size (mean±SE) of tumors at 20 days: 1.0±1.1 mm^3
[1]; 500 μg/kg/day×10 days
  delay in reaching the 50 mm^3 tumor size versus control mice (PBS, EGF, or WHI-P154): approximately 11 days
[1]; 500 μg/kg/day×10 days i.p.
  time at which tumors reached a size of 50 mm^3: 47.4 ± 7.1 days
[1]; [4]
  median tumor-free survival: 33 days
  time within which all mice developed tumors: ≤ 40 days
[1]; 1 mg/kg/day, 10 consecutive days
  mice alive and free of detectable tumors for >58 days: 40%
[1]; 1 mg/kg/day×10 days, 53.2 nmol vs 2.9 nmol of WHI-P154
  enhancement of in vivo anti-tumor activity of WHI-P154 by conjugation to EGF: > 8 fold
[1]; 1 mg/kg/day×10 days, 58-day observation period
  tumor size in the remaining 60% of the mice: ≤ 50 mm^3
[1]; 0.5 and 1 mg/kg/day×10 days i.p.
  toxicity of the applied dose levels (in words): nontoxic
[1]
  in vivo anti-tumor activity / tumor-free survival (in words): significantly improved tumor-free survival in a dose-dependent fashion
[1]; listed as EGF-P54
  in vivo anti-tumor activity / tumor-free survival (in words): significant in vivo anti-tumor activity
U373 glioma cells
  morphologic changes (in words): complete disruption of microtubules, marked shrinkage, nuclear fragmentation and inability to adhere to the substratum
[2]; [5]
  IC50: 881 nM
[2]; read-out: mean IC50 value, 3 independent experiments, FIG. 5A
  IC50: 813 nM and 811 nM
[2]; read-out: range of IC50 values, 3 independent experiments
  IC50: 588 to 950 nM
Glioblastoma cells
  apoptotic nuclei by digoxigenin-dUTP incorporation (in words): many apoptotic yellow nuclei
[3]; 3 independent experiments, FIG. 5A, read-out: mean IC50 value
  IC50: 620 ± 97 nM
[3]; 3 independent experiments, read-out: range of IC50 values
  IC50: 487 to 761 nM
[3]; [5]
  IC50: 601 nM
U373 glioblastoma cells
  time at which internalized complexes were detected in the perinuclear region: ≤ 30 min

## EGF: Recombinant human EGF produced in E. coli; used unconjugated as control and as adhesion stimulus
[1]; 1 mg/kg/day×10 days i.p.
  time at which tumors reached a size of 50 mm^3: 34.0 ± 3.0 days
[1]; 1 mg/kg/day×10 days i.p., N=5
  median tumor-free survival: 23 days
[1]
  in vivo anti-tumor activity / tumor-free survival (in words): inability
U373 cells
  fraction capable of adhering to poly-L-lysine coated plates: 58.48±4.7%
